{"source": "paper PMC4529401", "about": "(Pharmaceutical research, 2015)", "key": {"human OCT2 [1]": {"target": "T1, human OCT2 (Homo sapiens, UniProt O15244)", "T1 sequence (O15244 1-555)": "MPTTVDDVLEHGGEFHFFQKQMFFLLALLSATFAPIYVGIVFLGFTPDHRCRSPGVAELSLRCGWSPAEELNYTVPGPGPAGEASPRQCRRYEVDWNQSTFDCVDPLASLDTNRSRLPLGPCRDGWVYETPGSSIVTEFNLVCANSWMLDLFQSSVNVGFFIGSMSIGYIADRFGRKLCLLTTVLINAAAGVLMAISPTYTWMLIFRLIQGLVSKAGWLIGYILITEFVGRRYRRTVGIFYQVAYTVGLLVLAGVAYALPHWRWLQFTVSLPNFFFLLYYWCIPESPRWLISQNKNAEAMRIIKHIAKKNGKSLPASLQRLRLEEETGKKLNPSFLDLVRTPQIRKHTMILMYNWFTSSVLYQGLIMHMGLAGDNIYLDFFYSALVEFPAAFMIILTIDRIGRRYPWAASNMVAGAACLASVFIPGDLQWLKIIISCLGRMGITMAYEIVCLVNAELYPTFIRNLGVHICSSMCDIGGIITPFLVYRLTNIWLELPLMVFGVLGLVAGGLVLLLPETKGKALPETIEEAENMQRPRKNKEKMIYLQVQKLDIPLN", "assay": "Transport of TEA and MPP in CHO cells that stably expressed human OCT2", "format": "cell-based", "settings": "for true Kt for OCT2-mediated transport (suggested): authors' estimate in the discussion; for Ktapp of uptake: 30 sec uptakes"}, "human OCT2 [2]": {"target": "T1, human OCT2", "assay": "Literature kinetic parameters for OCT2-mediated transport, cells", "format": "cell-based", "settings": "median of the values in Table I"}, "human OCT2 [3]": {"target": "T1, human OCT2", "settings": "ref Morales & Wright, unpublished; cited from earlier work"}, "[4]": {"settings": "OCT2 knockdown cells (shRNA #6), paired studies, three (TEA) or four (MPP)"}, "[5]": {"settings": "control (fully expressing) cells, paired studies, three (TEA) or four (MPP)"}, "[6]": {"settings": "control (unshaken), 96 well plate, n=3"}, "[7]": {"settings": "shaken (reciprocal, 13 Hz), 96 well plate, n=3"}}, "note": "Where two headings read alike, the source gives them in different places.", "data": [{"smiles": "C[n+]1ccc(-c2ccccc2)cc1", "note": "[MPP, 1-Methyl-4-phenylpyridinium]", "values": [{"measurement": "increase of 30 sec uptake by shaking", "setting": "human OCT2 [1]; 24 well plate, flat-bed orbital shaker 300 rpm (5 Hz), [3H] substrate, P < 0.05", "result": 50, "unit": "%"}, {"measurement": "Jmax", "setting": "human OCT2 [1]; [4]", "result": "6.1 ± 1.2", "unit": "pmol cm^−2 min^−1"}, {"measurement": "apparent Kt", "setting": "human OCT2 [1]; [4]", "result": "3.8 ± 0.5", "unit": "µM"}, {"measurement": "Ktapp", "setting": "human OCT2 [1]; OCT2 knockdown cells, six paired experiments (n = 6)", "result": "3.3 ± 0.9", "unit": "µM"}, {"measurement": "Jmax", "setting": "human OCT2 [1]; Table I, present study", "result": 35, "unit": "pmol cm^−2 min^−1"}, {"measurement": "Ktapp", "setting": "human OCT2 [1]; Table I, present study", "result": 9, "unit": "µM"}, {"measurement": "true Kt for OCT2-mediated transport (suggested)", "setting": "human OCT2 [1]", "result": "1 to 2", "unit": "µM"}, {"measurement": "Winne ‘bias’", "setting": "human OCT2 [1]; calculated from present study Jmax and a 1500 µm UWL", "result": 7, "unit": "µM"}, {"measurement": "maximum transport rates, fold lower than in parental OCT2-expressing cells", "setting": "human OCT2 [1]; cells with reduced OCT2 expression (RNAi)", "result": 11, "unit": "fold"}, {"measurement": "Jmax", "setting": "human OCT2 [1]; [5]", "result": "64.7 ± 16.6", "unit": "pmol cm^−2 min^−1"}, {"measurement": "apparent Kt", "setting": "human OCT2 [1]; [5]", "result": "16.6 ± 4.0", "unit": "µM"}, {"measurement": "Ktapp of uptake", "setting": "human OCT2 [1]; [6]", "result": "6.5 ± 0.4", "unit": "µM"}, {"measurement": "Jmax", "setting": "human OCT2 [1]; [6]", "result": "35.4 ± 1.4", "unit": "pmol cm^−2 min^−1"}, {"measurement": "estimated true Kt", "setting": "human OCT2 [1]; intercept of the Jmax vs Ktapp relationship (linear regression)", "result": "1.8 ± 1.6", "unit": "µM"}, {"measurement": "reduction in the 15 sec uptake in OCT2 knockdown cells", "setting": "human OCT2 [1]; knockdown (shRNA #6) vs control cells, […] [14C]TEA plus 1.0 nM [3H]MPP", "result": 55, "unit": "%"}, {"measurement": "reduction of Jmax in OCT2 knockdown cells", "setting": "human OCT2 [1]; knockdown vs control cells", "result": 90, "unit": "%"}, {"measurement": "Ktapp of uptake", "setting": "human OCT2 [1]; [7]", "result": "4.5 ± 0.5", "unit": "µM"}, {"measurement": "Jmax", "setting": "human OCT2 [1]; [7]", "result": "37.4 ± 2.5", "unit": "pmol cm^−2 min^−1"}]}, {"smiles": "CN(C)C(=N)N=C(N)N", "note": "[Metformin]", "values": [{"measurement": "true Kt for OCT2-mediated transport (suggested)", "setting": "human OCT2 [1]", "result": "~ 1000 µM"}, {"measurement": "median Jmax", "setting": "human OCT2 [2]", "result": "~ 350 pmol cm^−2 min^−1"}, {"measurement": "Jmax", "setting": "human OCT2 [3]", "result": 265, "unit": "pmol cm^−2 min^−1"}, {"measurement": "Ktapp", "setting": "human OCT2 [3]", "result": 378, "unit": "µM"}]}]}
